{"source": "patent US12391733B2", "about": "“Stapled intracellular-targeting antimicrobial peptides to treat infection” (priority 2016, dated 2025)", "key": {"[1]": {"tested_on": "human red blood cells (RBCs)", "format": "cell-based", "settings": "red cells of human, 1 h, 50", "description": "One of the key obstacles that have long impeded the use of AMPs in systemic infections such as sepsis is their tendency to lyse human cells, such as red blood cells (RBCs). Thus, it is critical to minimize hemolytic activity as much as possible to achieve a therapeutic window. […] Of note, in those circumstances where hydrocarbon staples increase hemolytic activity due to increasing hydrophobicity, the alkene moiety can be modified, e.g., by dihydroxylation, to install hydrophilic residues and potentially mitigate hemolysis.\nHemolytic Activity Assay For the determination of hemolytic activity, the following protocol was applied: human blood samples were centrifuged to isolate red blood cells (RBCs), which were then washed and suspended in phosphate-buffered saline to yield a 1% (v/v) suspension. This suspension was then added to serial dilutions of peptide stocks in water in clear round-bottom polypropylene 96-well plates and the plates incubated for 1 hour at 37° C. After incubation, the plates were centrifuged and the supernatant isolated to determine the amount of hemoglobin released using a spectrophotometer (570 nm). The minimum hemolytic concentration (MHC) was determined by assessing the peptide concentration at which there was less than 1% hemoglobin release."}, "[2]": {"test": "circular dichroism", "settings": "10 mM phosphate buffer; pH 7.4; ns °C; 100 uM"}, "[3]": {"tested_on": "E. coli", "format": "cell-based, Escherichia coli", "settings": "Table 1; microbroth dilution, refined MHB, 20-24 hours at 37° C.", "description": "Antimicrobial Activity Assay The following microbroth dilution protocol was adapted to determine the MIC of each peptide. First, Mueller-Hinton broth (MHB) was passed through an anion exchange column to remove polyanionic species and generate refined MHB. This refined broth was then used in the standard microbroth dilution protocol devised by Hancock et al. for 96 well plates. […] Briefly, bacterial cells were grown overnight in refined MHB at 37° C. and then diluted and allowed to grow again for several hours. Serial dilutions of peptide stocks in water (10 μl) were prepared using clear round-bottom polypropylene 96-well plates. Then 90 μl of bacteria in refined MHB was added to give a final inoculum of 5×10^5 CFU/ml. The plates were then covered with porous tape to reduce evaporation, and incubated for 20-24 hours at 37° C."}}, "note": "Positions of bridges follow the written chain, without caps; N, C: chain ends. Non-standard residues stand in square brackets, D forms with d. Residues, ends and D or L forms follow the SMILES beside them. R8 = C=CCCCCCC[C@@](C)(N)C(=O)O; S5 = C=CCCC[C@](C)(N)C(=O)O", "data": [{"smiles": "CC(C)C[C@H](NC(=O)[C@H](CC(C)C)NC(=O)[C@H](CCCNC(=N)N)NC(=O)[C@H](Cc1c[nH]cn1)NC(=O)[C@@H](NC(=O)[C@H](CCCNC(=N)N)NC(=O)CNC(=O)[C@]1(C)CCCC=CCCC[C@](C)(NC(=O)CNC(=O)[C@H](C)NC(=O)[C@H](CCCNC(=N)N)NC(=O)[C@H](CO)NC(=O)[C@H](CO)NC(=O)[C@H](CCCNC(=N)N)NC(=O)[C@@H](N)[C@@H](C)O)C(=O)N[C@@H](CCC(N)=O)C(=O)N[C@@H](Cc2c[nH]c3ccccc23)C(=O)N2CCC[C@H]2C(=O)N1)C(C)C)C(=O)N[C@@H](CCCNC(=N)N)C(=O)N[C@@H](CCCCN)C(N)=O", "note": "[BFStap(i + 4)8] (H-TRSSRAG[S5]QWP[S5]GRVHRLLRK-NH2; staple 8-12; N-terminus and C-terminus assumed)", "values": [{"measurement": "% Hemolysis at 50 μg/ml", "setting": "[1]", "result": 2.8, "unit": "%"}, {"measurement": "helicity", "setting": "[2]", "result": 2.3, "unit": "%"}, {"measurement": "Antimicrobial Activity NIC (μg/ml) E. coli", "setting": "[3]", "result": 29.2, "unit": "µg/mL"}]}, {"smiles": "CC(C)C[C@H](NC(=O)[C@H](CC(C)C)NC(=O)[C@H](CCCNC(=N)N)NC(=O)[C@H](Cc1c[nH]cn1)NC(=O)[C@]1(C)CCCC=CCCCCCC[C@@](C)(NC(=O)CNC(=O)[C@H](C)NC(=O)[C@H](CCCNC(=N)N)NC(=O)[C@H](CO)NC(=O)[C@H](CO)NC(=O)[C@H](CCCNC(=N)N)NC(=O)[C@@H](N)[C@@H](C)O)C(=O)N[C@@H](CCC(N)=O)C(=O)N[C@@H](Cc2c[nH]c3ccccc23)C(=O)N2CCC[C@H]2C(=O)N[C@@H](C(C)C)C(=O)NCC(=O)N[C@@H](CCCNC(=N)N)C(=O)N1)C(=O)N[C@@H](CCCNC(=N)N)C(=O)N[C@@H](CCCCN)C(N)=O", "note": "[BFStap(i + 7)5] (H-TRSSRAG[R8]QWPVGR[S5]HRLLRK-NH2; staple 8-15; N-terminus and C-terminus assumed)", "values": [{"measurement": "% Hemolysis at 50 μg/ml", "setting": "[1]", "result": 6.8, "unit": "%"}, {"measurement": "Antimicrobial Activity NIC (μg/ml) E. coli", "setting": "[3]", "result": 52.1, "unit": "µg/mL"}]}, {"smiles": "CC(C)C[C@H](NC(=O)CNC(=O)[C@H](C)NC(=O)[C@H](CCCNC(=N)N)NC(=O)[C@H](CO)NC(=O)[C@H](CO)NC(=O)[C@H](CCCNC(=N)N)NC(=O)[C@@H](N)[C@@H](C)O)C(=O)N[C@@H](CCC(N)=O)C(=O)N[C@@H](Cc1c[nH]c2ccccc12)C(=O)N1CCC[C@H]1C(=O)N[C@H](C(=O)NCC(=O)N[C@@H](CCCNC(=N)N)C(=O)N[C@@]1(C)CCCC=CCCC[C@@](C)(C(=O)N[C@@H](CCCNC(=N)N)C(=O)N[C@@H](CCCCN)C(N)=O)NC(=O)[C@H](CC(C)C)NC(=O)[C@H](CCCNC(=N)N)NC(=O)[C@H](Cc2c[nH]cn2)NC1=O)C(C)C", "note": "[BFStap(i + 4)3] (H-TRSSRAGLQWPVGR[S5]HRL[S5]RK-NH2; staple 15-19; N-terminus and C-terminus assumed)", "values": [{"measurement": "% Hemolysis at 50 μg/ml", "setting": "[1]", "result": 2.9, "unit": "%"}, {"measurement": "helicity", "setting": "[2]", "result": 4.3, "unit": "%"}, {"measurement": "Antimicrobial Activity NIC (μg/ml) E. coli", "setting": "[3]", "result": 25.0, "unit": "µg/mL"}]}, {"smiles": "CC(C)C[C@H](NC(=O)CNC(=O)[C@H](C)NC(=O)[C@H](CCCNC(=N)N)NC(=O)[C@H](CO)NC(=O)[C@H](CO)NC(=O)[C@H](CCCNC(=N)N)NC(=O)[C@@H](N)[C@@H](C)O)C(=O)N[C@@H](CCC(N)=O)C(=O)N[C@@H](Cc1c[nH]c2ccccc12)C(=O)N1CCC[C@H]1C(=O)N[C@H](C(=O)NCC(=O)N[C@@H](CCCNC(=N)N)C(=O)N[C@H](C(=O)N[C@@H](Cc1cnc[nH]1)C(=O)N[C@@H](CCCNC(=N)N)C(=O)N[C@@H](CC(C)C)C(=O)N[C@@H](CC(C)C)C(=O)N[C@@H](CCCNC(=N)N)C(=O)N[C@@H](CCCCN)C(=O)O)C(C)C)C(C)C", "note": "[Buforin II(F10W), reference compound]", "values": [{"measurement": "% Hemolysis at 50 μg/ml", "setting": "[1]", "result": 2.7, "unit": "%"}, {"measurement": "Antimicrobial Activity NIC (μg/ml) E. coli", "setting": "[3]", "result": ">800", "unit": "µg/mL"}]}, {"smiles": "CC(C)C[C@H](NC(=O)CNC(=O)[C@H](C)NC(=O)[C@H](CCCNC(=N)N)NC(=O)[C@H](CO)NC(=O)[C@H](CO)NC(=O)[C@H](CCCNC(=N)N)NC(=O)[C@@H](N)[C@@H](C)O)C(=O)N[C@@H](CCC(N)=O)C(=O)N[C@@H](Cc1c[nH]c2ccccc12)C(=O)N1CCC[C@H]1C(=O)N[C@H](C(=O)NCC(=O)N[C@@H](CCCNC(=N)N)C(=O)N[C@H](C(=O)N[C@@]1(C)CCCC=CCCC[C@@](C)(C(=O)N[C@@H](CCCCN)C(N)=O)NC(=O)[C@H](CC(C)C)NC(=O)[C@H](CC(C)C)NC(=O)[C@H](CCCNC(=N)N)NC1=O)C(C)C)C(C)C", "note": "[BFStap(i + 4)2] (H-TRSSRAGLQWPVGRV[S5]RLL[S5]K-NH2; staple 16-20)", "values": [{"measurement": "% Hemolysis at 50 μg/ml", "setting": "[1]", "result": 12.6, "unit": "%"}, {"measurement": "helicity", "setting": "[2]", "result": 3.2, "unit": "%"}]}, {"smiles": "CC(C)C[C@H](NC(=O)CNC(=O)[C@H](C)NC(=O)[C@H](CCCNC(=N)N)NC(=O)[C@H](CO)NC(=O)[C@H](CO)NC(=O)[C@H](CCCNC(=N)N)NC(=O)[C@@H](N)[C@@H](C)O)C(=O)N[C@@H](CCC(N)=O)C(=O)N[C@@H](Cc1c[nH]c2ccccc12)C(=O)N1CCC[C@H]1C(=O)N[C@]1(C)CCCCCCC=CCCC[C@@](C)(C(=O)N[C@@H](CCCNC(=N)N)C(=O)N[C@@H](CCCCN)C(N)=O)NC(=O)[C@H](CC(C)C)NC(=O)[C@H](CCCNC(=N)N)NC(=O)[C@H](Cc2c[nH]cn2)NC(=O)[C@H](C(C)C)NC(=O)[C@H](CCCNC(=N)N)NC(=O)CNC1=O", "note": "[BFStap(i + 7)3] (H-TRSSRAGLQWP[R8]GRVHRL[S5]RK-NH2; staple 12-19; N-terminus and C-terminus assumed)", "values": [{"measurement": "% Hemolysis at 50 μg/ml", "setting": "[1]", "result": 6.1, "unit": "%"}, {"measurement": "Antimicrobial Activity NIC (μg/ml) E. coli", "setting": "[3]", "result": 29.2, "unit": "µg/mL"}]}, {"smiles": "CC(C)C[C@H](NC(=O)CNC(=O)[C@H](C)NC(=O)[C@H](CCCNC(=N)N)NC(=O)[C@H](CO)NC(=O)[C@H](CO)NC(=O)[C@H](CCCNC(=N)N)NC(=O)[C@@H](N)[C@@H](C)O)C(=O)N[C@@H](CCC(N)=O)C(=O)N[C@@H](Cc1c[nH]c2ccccc12)C(=O)N1CCC[C@H]1C(=O)N[C@@]1(C)CCCC=CCCC[C@@](C)(C(=O)N[C@@H](CCCNC(=N)N)C(=O)N[C@@H](CC(C)C)C(=O)N[C@@H](CC(C)C)C(=O)N[C@@H](CCCNC(=N)N)C(=O)N[C@@H](CCCCN)C(N)=O)NC(=O)[C@H](C(C)C)NC(=O)[C@H](CCCNC(=N)N)NC(=O)CNC1=O", "note": "[BFStap(i + 4)6] (H-TRSSRAGLQWP[S5]GRV[S5]RLLRK-NH2; staple 12-16)", "values": [{"measurement": "% Hemolysis at 50 μg/ml", "setting": "[1]", "result": 10.0, "unit": "%"}]}, {"smiles": "CC(C)C[C@@H]1NC(=O)CNC(=O)[C@H](C)NC(=O)[C@](C)(NC(=O)[C@H](CO)NC(=O)[C@H](CO)NC(=O)[C@H](CCCNC(=N)N)NC(=O)[C@@H](N)[C@@H](C)O)CCCCCCC=CCCC[C@@](C)(C(=O)NCC(=O)N[C@@H](CCCNC(=N)N)C(=O)N[C@H](C(=O)N[C@@H](Cc2c[nH]cn2)C(=O)N[C@@H](CCCNC(=N)N)C(=O)N[C@@H](CC(C)C)C(=O)N[C@@H](CC(C)C)C(=O)N[C@@H](CCCNC(=N)N)C(=O)N[C@@H](CCCCN)C(N)=O)C(C)C)NC(=O)[C@@H]2CCCN2C(=O)[C@H](Cc2c[nH]c3ccccc23)NC(=O)[C@H](CCC(N)=O)NC1=O", "note": "[BFStap(i + 7)8] (H-TRSS[R8]AGLQWP[S5]GRVHRLLRK-NH2; staple 5-12)", "values": [{"measurement": "% Hemolysis at 50 μg/ml", "setting": "[1]", "result": 3.9, "unit": "%"}, {"measurement": "helicity", "setting": "[2]", "result": 0, "unit": "%"}]}, {"smiles": "CC(C)C[C@H](NC(=O)CNC(=O)[C@H](C)NC(=O)[C@H](CCCNC(=N)N)NC(=O)[C@H](CO)NC(=O)[C@H](CO)NC(=O)[C@H](CCCNC(=N)N)NC(=O)[C@@H](N)[C@@H](C)O)C(=O)N[C@@H](CCC(N)=O)C(=O)N[C@@H](Cc1c[nH]c2ccccc12)C(=O)N1CCC[C@H]1C(=O)N[C@H](C(=O)NCC(=O)N[C@@H](CCCNC(=N)N)C(=O)N[C@H](C(=O)N[C@@H](Cc1c[nH]cn1)C(=O)N[C@@]1(C)CCCC=CCCC[C@@](C)(C(N)=O)NC(=O)[C@H](CCCNC(=N)N)NC(=O)[C@H](CC(C)C)NC(=O)[C@H](CC(C)C)NC1=O)C(C)C)C(C)C", "note": "[BFStap(i + 4)1] (H-TRSSRAGLQWPVGRVH[S5]LLR[S5]-NH2; staple 17-21; N-terminus and C-terminus assumed)", "values": [{"measurement": "% Hemolysis at 50 μg/ml", "setting": "[1]", "result": 2.2, "unit": "%"}, {"measurement": "Antimicrobial Activity NIC (μg/ml) E. coli", "setting": "[3]", "result": 50.0, "unit": "µg/mL"}]}, {"smiles": "CC(C)C[C@H](NC(=O)CNC(=O)[C@H](C)NC(=O)[C@H](CCCNC(=N)N)NC(=O)[C@H](CO)NC(=O)[C@H](CO)NC(=O)[C@H](CCCNC(=N)N)NC(=O)[C@@H](N)[C@@H](C)O)C(=O)N[C@@H](CCC(N)=O)C(=O)N[C@@H](Cc1c[nH]c2ccccc12)C(=O)N1CCC[C@H]1C(=O)N[C@H](C(=O)NCC(=O)N[C@@H](CCCNC(=N)N)C(=O)N[C@H](C(=O)N[C@@H](Cc1c[nH]cn1)C(=O)N[C@@H](CCCNC(=N)N)C(=O)N[C@@H](CC(C)C)C(=O)N[C@@H](CC(C)C)C(=O)N[C@@H](CCCNC(=N)N)C(=O)N[C@@H](CCCCN)C(N)=O)C(C)C)C(C)C", "values": [{"measurement": "helicity", "setting": "[2]", "result": 0, "unit": "%"}]}]}
